Test results taken from US7592457B2 (Korea Research Institute of Chemical Technology, priority 2004, dated 2009).

Legend:
[1] = target: D1 (Homo sapiens, UniProt P21728); test: Radioligand binding for selectivity, D1; conditions: read-out: Binding affinity (Inhibition rate % at 10 μM) D1
[2] = target: T1, hD2L receptor (Homo sapiens, UniProt P14416); test: Radioligand binding, dopamine D2 ([3H]spiperone); conditions: read-out: Binding affinity (Inhibition rate % at 10 μM) D2
T1 construct: purchased BioSignal Packard Inc., Montreal, Canada
T1 sequence (P14416 whole entry): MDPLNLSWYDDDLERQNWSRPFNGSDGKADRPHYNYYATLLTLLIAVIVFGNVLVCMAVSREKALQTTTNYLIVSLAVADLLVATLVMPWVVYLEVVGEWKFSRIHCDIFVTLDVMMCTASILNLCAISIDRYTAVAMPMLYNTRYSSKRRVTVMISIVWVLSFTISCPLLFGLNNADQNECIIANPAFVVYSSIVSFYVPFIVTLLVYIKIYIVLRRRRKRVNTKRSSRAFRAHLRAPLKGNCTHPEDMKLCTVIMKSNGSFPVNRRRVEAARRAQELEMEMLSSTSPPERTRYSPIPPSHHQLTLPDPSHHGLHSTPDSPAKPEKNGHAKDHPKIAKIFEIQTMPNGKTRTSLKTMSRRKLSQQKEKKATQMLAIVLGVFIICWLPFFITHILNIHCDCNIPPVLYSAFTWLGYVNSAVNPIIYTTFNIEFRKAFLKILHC

[3] = target: T2, 5-HT7 (Homo sapiens, UniProt P34969); test: Radioligand binding, 5-HT7 ([3H]LSD); conditions: read-out: Binding affinity (Inhibition rate % at 10 μM) 5HT7
T2 construct: purchased Euroscreen/BioSignal Packard Inc
T2 sequence (P34969 whole entry): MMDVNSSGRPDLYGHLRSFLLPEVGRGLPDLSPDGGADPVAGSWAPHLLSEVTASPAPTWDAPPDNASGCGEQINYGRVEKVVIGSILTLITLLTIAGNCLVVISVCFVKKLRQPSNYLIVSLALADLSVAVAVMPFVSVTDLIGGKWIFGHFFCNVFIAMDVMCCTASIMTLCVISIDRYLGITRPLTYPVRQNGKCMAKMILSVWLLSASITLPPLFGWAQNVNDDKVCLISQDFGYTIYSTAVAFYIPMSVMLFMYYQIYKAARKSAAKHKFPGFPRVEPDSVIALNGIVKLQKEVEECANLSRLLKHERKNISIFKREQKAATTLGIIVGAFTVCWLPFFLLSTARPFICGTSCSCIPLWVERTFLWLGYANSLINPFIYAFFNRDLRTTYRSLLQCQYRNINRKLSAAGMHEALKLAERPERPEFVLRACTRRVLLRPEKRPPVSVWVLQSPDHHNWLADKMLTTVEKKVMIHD
Protocol: (§1) Radioligand bindings were performed according to the test method provided by the supplier of receptor membrane (Euroscreen/BioSignal Packard Inc.).

[4] = target: T3, hD4.2 receptor (Homo sapiens, UniProt P21917, DEL265-296); test: Radioligand binding, dopamine D4 ([3H]YM-09151-2); conditions: read-out: Binding affinity (Inhibition rate % at 10 μM) D4
T3 construct: purchased BioSignal Packard Inc., Montreal, Canada
T3 sequence (P21917 with tags, fused parts or gaps DEL265-296): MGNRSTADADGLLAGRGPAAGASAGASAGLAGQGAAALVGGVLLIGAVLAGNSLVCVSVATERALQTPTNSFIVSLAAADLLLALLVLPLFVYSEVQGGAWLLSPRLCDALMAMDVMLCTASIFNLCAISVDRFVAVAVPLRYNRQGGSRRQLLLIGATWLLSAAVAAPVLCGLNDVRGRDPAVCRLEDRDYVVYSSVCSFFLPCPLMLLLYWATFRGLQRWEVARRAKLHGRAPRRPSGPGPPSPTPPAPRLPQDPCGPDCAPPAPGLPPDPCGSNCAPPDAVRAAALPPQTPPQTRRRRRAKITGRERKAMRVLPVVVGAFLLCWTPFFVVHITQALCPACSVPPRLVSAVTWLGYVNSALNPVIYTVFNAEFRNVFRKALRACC

[5] = target: T4, 5-HT1a (Homo sapiens, UniProt P08908); test: Radioligand binding, 5-HT1a ([3H]8-OH-DPAT); conditions: read-out: Binding affinity (Inhibition rate % at 10 μM) 5HT1a
T4 construct: purchased Euroscreen/BioSignal Packard Inc
T4 sequence (P08908 1-422): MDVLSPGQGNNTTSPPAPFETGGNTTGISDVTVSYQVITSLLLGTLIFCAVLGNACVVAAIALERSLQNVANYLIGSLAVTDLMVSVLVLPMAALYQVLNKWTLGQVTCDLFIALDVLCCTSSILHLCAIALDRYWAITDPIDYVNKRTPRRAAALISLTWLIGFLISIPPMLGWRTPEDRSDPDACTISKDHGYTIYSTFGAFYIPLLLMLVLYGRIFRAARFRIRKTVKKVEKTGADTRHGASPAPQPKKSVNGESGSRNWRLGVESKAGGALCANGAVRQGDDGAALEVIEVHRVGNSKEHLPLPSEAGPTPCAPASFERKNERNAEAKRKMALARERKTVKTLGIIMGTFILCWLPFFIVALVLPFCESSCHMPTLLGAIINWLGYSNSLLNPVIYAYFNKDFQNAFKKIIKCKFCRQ
Protocol: as §1

[6] = system: methamphetamine-induced hyperactivity and stereotypy; test: Methamphetamine-induced hyperactivity and stereotypy in rats; format: in vivo, rat; conditions: 50 mg/kg, i.p., methamphetamine 2 mg/kg
Protocol: On the day of testing, rats (200-250 g) were put into a transparent polycarbonate cages located in the activity chamber, and adapted for 30 minutes. For a methamphetamine-induced activity, vehicle or compounds according to the present invention was injected (i.p.) 30 minutes before the injection of methamphetamine (2 mg/kg, i.p.). After systemic injection of methamphetamine, total movement distance traveled or total stereotypy was measured over the 120-minutes period using an activity analyzer (TruScan, Coulbourn Instruments, USA).
The inhibitory effect of compounds (50 mg/kg, i.p.) of the present invention on methamphetamine (2 mg/kg, i.p.)-induced hyperactivity in rats is shown in FIGS. 2(a) and 2(b). The inhibitory effects of compounds (50 mg/kg, i.p.) of the present invention on methamphetamine (2 mg/kg, i.p.)-induced stereotypy is shown in FIGS. 3(a) and 3(b).

[7] = target: T5, 5-HT6 receptors (Homo sapiens, UniProt P50406); test: 5-HT-stimulated cAMP accumulation in HeLa cell transfected with human 5-HT6 receptor; format: cell-based; set-up: host or cells: HeLa; conditions: for Antagonist activity compared with methiothepin: 5-HT-stimulated cAMP accumulation; for Functional classification at 5-HT6 receptor: inhibition of 5-HT-stimulated cAMP accumulation
T5 sequence (P50406 whole entry): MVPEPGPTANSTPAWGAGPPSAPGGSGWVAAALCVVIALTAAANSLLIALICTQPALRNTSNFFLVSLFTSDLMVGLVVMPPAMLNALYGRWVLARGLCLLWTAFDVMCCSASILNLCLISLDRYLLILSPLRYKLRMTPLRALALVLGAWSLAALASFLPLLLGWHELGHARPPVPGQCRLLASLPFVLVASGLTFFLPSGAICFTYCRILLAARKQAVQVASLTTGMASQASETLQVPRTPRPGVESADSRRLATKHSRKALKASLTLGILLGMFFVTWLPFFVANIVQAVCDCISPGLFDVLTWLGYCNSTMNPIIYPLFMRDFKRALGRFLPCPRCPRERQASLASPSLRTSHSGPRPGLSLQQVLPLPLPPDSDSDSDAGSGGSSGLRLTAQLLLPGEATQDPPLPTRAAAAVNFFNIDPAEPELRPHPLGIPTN
Protocol: By a method (2000) disclosed by Rutledge et al. of MDS Pharma Service (Bothell, Wash., USA, MDSPS PT# 1037161), activity of adenylil cyclase in HeLa cell having transfected with human 5-HT6 receptor was measured. The assay mixture consisted of Hanks' balanced salt solution (HBSS, pH 7.4) containing: 1 mM MgCl2, 1 mM CaCl2, […] 1-methyl-3-isobutylxanthine. Incubation was started by addition of membrane suspension and compounds according to the present invention.

[8] = target: T6, human serotonin 5-HT6 receptor (Homo sapiens, UniProt P50406); test: [3H]LSD binding at cloned 5-HT6 receptors; conditions: for IC50: [3H]LSD 1.87 nM, cloned receptor membranes, 37° C., 60 min, read-out: IC50; for 5-HT6 affinity compared with known selective antagonists: in words; for inhibition at 10 µM: read-out: Binding affinity (Inhibition rate % at 10 μM) 5HT6
T6 construct: made in house; host or cells: Sf21 insect cells (pBacPAK8 baculovirus vector)
T6 sequence (P50406 whole entry): as above

[9] = target: T7, hD3 receptor (Homo sapiens, UniProt P35462); test: Radioligand binding, dopamine D3 ([3H]spiperone); conditions: read-out: Binding affinity (Inhibition rate % at 10 μM) D3
T7 construct: purchased BioSignal Packard Inc., Montreal, Canada
T7 sequence (P35462 whole entry): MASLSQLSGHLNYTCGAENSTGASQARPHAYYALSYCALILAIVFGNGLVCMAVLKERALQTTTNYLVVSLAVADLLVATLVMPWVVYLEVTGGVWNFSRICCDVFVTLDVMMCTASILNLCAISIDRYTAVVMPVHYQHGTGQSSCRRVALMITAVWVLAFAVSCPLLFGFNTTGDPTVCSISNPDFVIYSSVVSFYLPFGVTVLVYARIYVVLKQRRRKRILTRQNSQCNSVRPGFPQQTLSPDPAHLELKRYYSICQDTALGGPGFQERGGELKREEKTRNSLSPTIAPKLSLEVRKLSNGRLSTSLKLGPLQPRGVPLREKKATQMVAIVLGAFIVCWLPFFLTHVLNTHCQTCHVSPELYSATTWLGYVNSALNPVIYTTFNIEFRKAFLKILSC

[10] = target: T8, 5-HT2a (Homo sapiens, UniProt P28223); test: Radioligand binding, 5-HT2a ([3H]Ketanserin); conditions: read-out: Binding affinity (Inhibition rate % at 10 μM) 5HT2a
T8 construct: purchased Euroscreen/BioSignal Packard Inc
T8 sequence (P28223 whole entry): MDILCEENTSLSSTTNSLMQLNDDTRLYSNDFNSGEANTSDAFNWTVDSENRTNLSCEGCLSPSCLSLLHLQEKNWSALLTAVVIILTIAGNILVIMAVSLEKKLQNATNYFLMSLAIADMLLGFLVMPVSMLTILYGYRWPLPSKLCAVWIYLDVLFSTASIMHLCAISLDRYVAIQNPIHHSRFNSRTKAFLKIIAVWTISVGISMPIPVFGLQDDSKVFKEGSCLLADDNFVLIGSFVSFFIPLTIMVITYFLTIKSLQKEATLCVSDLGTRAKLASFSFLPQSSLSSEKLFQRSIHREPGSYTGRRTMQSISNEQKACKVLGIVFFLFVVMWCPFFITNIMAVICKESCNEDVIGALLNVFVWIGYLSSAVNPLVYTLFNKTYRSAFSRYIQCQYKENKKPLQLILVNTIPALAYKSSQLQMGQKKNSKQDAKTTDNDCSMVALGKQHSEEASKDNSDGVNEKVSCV
Protocol: as §1

[11] = target: T9, 5-HT2c (Homo sapiens, UniProt P28335); test: Radioligand binding, 5-HT2c ([3H]Mesulergine); conditions: read-out: Binding affinity (Inhibition rate % at 10 μM) 5HT2c
T9 construct: purchased Euroscreen/BioSignal Packard Inc
T9 sequence (P28335 33-458): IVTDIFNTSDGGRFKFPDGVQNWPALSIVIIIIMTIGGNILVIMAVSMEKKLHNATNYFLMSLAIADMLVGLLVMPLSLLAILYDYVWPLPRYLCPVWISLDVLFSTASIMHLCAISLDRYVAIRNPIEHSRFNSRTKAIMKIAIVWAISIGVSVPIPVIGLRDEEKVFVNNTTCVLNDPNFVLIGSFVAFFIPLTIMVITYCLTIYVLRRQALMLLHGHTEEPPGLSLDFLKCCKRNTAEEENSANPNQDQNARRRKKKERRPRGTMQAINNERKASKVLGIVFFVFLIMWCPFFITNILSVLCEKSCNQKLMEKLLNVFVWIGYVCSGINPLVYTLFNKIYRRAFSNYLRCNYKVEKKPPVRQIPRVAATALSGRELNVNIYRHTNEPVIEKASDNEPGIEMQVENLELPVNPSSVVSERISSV
Protocol: as §1

[12] = target: T5, 5-HT6 receptors; conditions: literature; cited from earlier work

Sequence of D1 (P21728 whole entry): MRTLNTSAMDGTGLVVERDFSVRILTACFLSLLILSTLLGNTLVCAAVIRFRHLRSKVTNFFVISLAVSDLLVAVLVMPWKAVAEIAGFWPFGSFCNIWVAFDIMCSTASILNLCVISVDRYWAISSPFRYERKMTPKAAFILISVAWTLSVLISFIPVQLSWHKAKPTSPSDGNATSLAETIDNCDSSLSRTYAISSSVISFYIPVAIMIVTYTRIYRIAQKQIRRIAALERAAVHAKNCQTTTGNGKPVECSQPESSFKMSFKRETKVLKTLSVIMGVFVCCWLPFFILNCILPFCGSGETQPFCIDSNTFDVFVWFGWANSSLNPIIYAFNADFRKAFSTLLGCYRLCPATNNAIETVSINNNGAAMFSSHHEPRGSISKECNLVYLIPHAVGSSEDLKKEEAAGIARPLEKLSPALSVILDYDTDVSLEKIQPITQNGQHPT

Work on `CC1(c2ccccc2)C(=O)Nc2cc(Cl)cc(Cl)c2C1=O` (stereo not shown) [Example 1, 5,7-dichloro-3-methyl-3-phenyl-1H-quinoline-2,4-dione] yielded an inhibition at 10 µM [1] of 11.4%, a melting point of 222 to 225 °C and an inhibition at 10 µM [2] of 1.6%. The inhibition at 10 µM [3] was 43.2%, the inhibition at 10 µM [4] was 0% and the inhibition at 10 µM [5] was 16.4%. The Antipsychotic effect [6] was “mild antipsychotic effect”, the “Antagonist activity compared with methiothepin” value [7] was “weaker antagonist activity than methiothepin” and the “Functional classification at 5-HT6 receptor” value [7] was 5-HT6 receptor antagonist. The IC50 [8] was 89 nM, the “5-HT6 affinity compared with known selective antagonists” value [8] was “almost same affinities as or better affinities than known selective antagonists” and the inhibition at 10 µM [8] was 91.1%. It also gave an inhibition at 10 µM [9] of 12.6%, an inhibition at 10 µM [10] of 6.4% and an inhibition at 10 µM [11] of 18.3%.

With `COc1cc2c(c(OC)c1)C(=O)C(C)(c1ccccc1)C(=O)N2` (stereo not shown) [Example 8, 5,7-dimethoxy-3-methyl-3-phenyl-1H-quinoline-2,4-dione] the inhibition at 10 µM [1] was 16.9%, the inhibition at 10 µM [2] was 16% and the inhibition at 10 µM [3] was 23.3%. The inhibition at 10 µM [4] was 0.8%, the inhibition at 10 µM [5] was 30.2% and the Ki [12] was 1.4 nM. For the same compound, the IC50 [8] was 118 nM, the inhibition at 10 µM [8] was 74% and the inhibition at 10 µM [9] was 4.6%. The inhibition at 10 µM [10] was 13.6% and the inhibition at 10 µM [11] was 23.9%.

With `CC1(c2ccc(O)cc2)C(=O)Nc2cc(Cl)cc(Cl)c2C1=O` (stereo not shown) [Example 13, 5,7-dichloro-3-(4-hydroxy-phenyl)-3-methyl-1H-quinoline-2,4-dione] the inhibition at 10 µM [1] was 51%, the melting point was 222 to 223 °C and the inhibition at 10 µM [2] was 35.2%. For the same compound, the inhibition at 10 µM [3] was 36.7%, the inhibition at 10 µM [4] was 0% and the inhibition at 10 µM [5] was 33.9%. The Antipsychotic effect [6] was “mild antipsychotic effect”, the “Antagonist activity compared with methiothepin” value [7] was “weaker antagonist activity than methiothepin” and the “Functional classification at 5-HT6 receptor” value [7] was 5-HT6 receptor antagonist. The IC50 [8] was 20 nM, the “5-HT6 affinity compared with known selective antagonists” value [8] was “almost same affinities as or better affinities than known selective antagonists” and the inhibition at 10 µM [8] was 89.5%. For the same compound, the inhibition at 10 µM [9] was 27.8%, the inhibition at 10 µM [10] was 48.6% and the inhibition at 10 µM [11] was 39.4%.

`CN1CCN(c2ccc3c(c2)NC(=O)C(C)(c2ccc([N+](=O)[O-])cc2)C3=O)CC1` (stereo not shown) [Example 51, 3-methyl-7-(4-methyl-piperazine-1-yl)-3-(4-nitro-phenyl)-1H-quinoline-2,4-dione] gave an inhibition at 10 µM [1] of 40.9%, a melting point of 150 to 151 °C and an inhibition at 10 µM [2] of 7.4%. For the same compound, the inhibition at 10 µM [3] was 17.5%, the inhibition at 10 µM [4] was 0% and the inhibition at 10 µM [5] was 44.2%. For the same compound, the IC50 [8] was 904 nM, the inhibition at 10 µM [8] was 73.5% and the inhibition at 10 µM [9] was 13.5%. For the same compound, the inhibition at 10 µM [10] was 26.4% and the inhibition at 10 µM [11] was 20.3%.
